Data: ChEMBL document CHEMBL6109124, “Identification of effective anti-osteosarcoma agents via screening of an in-house NQO1-targeted compound library” (Bioorg Med Chem, 2025)

Key:
[1] = Toxicity in human MNNG cell xenografted Balb/c mouse assessed as body weight loss at 15 to 45 mg/kg, iv administered every 2 days for 3 weeks and measured every other day during compound dosing; type: organism-based; conditions: in vivo, 504 h, dose 15-45 mg/kg, time 21 day
HOS-TE85 [2] = test: Induction of apoptosis in human MNNG cells assessed as necrotic cells at 2.5 uM measured after 48 hrs by Alexa Fluor 488 Annexin V/propidium iodide staining based flow cytometry (reference value: 0.04%); type: functional
HOS-TE85 [3] = test: Induction of apoptosis in human MNNG cells assessed as viable cells at 2.5 uM measured after 48 hrs by Alexa Fluor 488 Annexin V/propidium iodide staining based flow cytometry (reference value: 98.8%); type: functional; conditions: read-out: Activity
HOS-TE85 [4] = test: Induction of apoptosis in human MNNG cells assessed as viable cells at 10 uM measured after 48 hrs by Alexa Fluor 488 Annexin V/propidium iodide staining based flow cytometry (reference value: 98.8%); type: functional; conditions: read-out: Activity
HOS-TE85 [5] = test: Induction of apoptosis in human MNNG cells assessed as early apoptotic cells at 1 uM measured after 48 hrs by Alexa Fluor 488 Annexin V/propidium iodide staining based flow cytometry (reference value: 0.69%); type: functional
[6] = Toxicity in human MNNG cell xenografted Balb/c mouse assessed as effect on kidney at 15 to 45 mg/kg, iv administered every 2 days for 3 weeks and measured post last dose by H and E staining based microscopy; type: organism-based; conditions: in vivo, 504 h, dose 15-45 mg/kg, time 21 day
[7] = Toxicity in human MNNG cell xenografted Balb/c mouse assessed as reduction in Cr level at 15 to 45 mg/kg, iv administered every 2 days for 3 weeks and measured post last dose; type: organism-based; conditions: in vivo, 504 h, dose 15-45 mg/kg, time 21 day
HOS-TE85 [8] = test: Cell cycle arrest in human MNNG cells assessed as accumulation of cells at S phase at 10 uM measured after 24 hrs by propidium iodide staining based flow cytometry (reference value: 39.4%); type: functional
HOS-TE85 [9] = test: Antitumor activity against human MNNG cells xenografted in Balb/c mouse assessed as tumor growth inhibition at 15 mg/kg, iv administered every 2 days for 3 weeks and measured daily during compound dosing relative to control; type: functional; conditions: HOS-TE85, 504 h, time 21 day, read-out: TGI
[10] = Cytotoxicity against HUVEC assessed as cell growth inhibition measured after 72 hrs by MTT assay; type: toxicity, cell-based; conditions: human, HUVEC cells
HOS-TE85 [11] = test: Induction of reactive oxygen species generation in human MNNG cells measured after 3 hrs by DCFH-DA probe based fluorescence assay; type: functional, cell-based; conditions: dose 1-10 µM
HOS-TE85 [12] = test: Cell cycle arrest in human MNNG cells assessed as accumulation of cells at S phase at 2.5 uM measured after 24 hrs by propidium iodide staining based flow cytometry (reference value: 39.4%); type: functional
HOS-TE85 [13] = test: Cell cycle arrest in human MNNG cells assessed as accumulation of cells at S phase at 5 uM measured after 24 hrs by propidium iodide staining based flow cytometry (reference value: 39.4%); type: functional
HOS-TE85 [14] = test: Cell cycle arrest in human MNNG cells assessed as accumulation of cells at S phase at 1 uM measured after 24 hrs by propidium iodide staining based flow cytometry (reference value: 39.4%); type: functional
HOS-TE85 [15] = test: Cell cycle arrest in human MNNG cells assessed as accumulation of cells at G0/G1 phase at 2.5 uM measured after 24 hrs by propidium iodide staining based flow cytometry (reference value: 51.4%); type: functional
HOS-TE85 [16] = test: Cytotoxicity against human MNNG cells assessed as cell growth inhibition at 10 uM measured after 72 hrs by MTT assay relative to control; type: functional; conditions: read-out: GI
HOS-TE85 [17] = test: Cell cycle arrest in human MNNG cells assessed as accumulation of cells at G2/M phase at 10 uM measured after 24 hrs by propidium iodide staining based flow cytometry (reference value: 39.4%); type: functional
[18] = Selectivity index, ratio of IC50 for cytotoxicity against HUVEC to IC50 for cytotoxicity against human MNNG cells; type: toxicity, cell-based; conditions: HUVEC and human MNNG cells, read-out: Ratio IC50
HOS-TE85 [19] = test: Induction of apoptosis in human MNNG cells assessed as early apoptotic cells at 10 uM measured after 48 hrs by Alexa Fluor 488 Annexin V/propidium iodide staining based flow cytometry (reference value: 0.69%); type: functional
HOS-TE85 [20] = test: Cell cycle arrest in human MNNG cells assessed as accumulation of cells at G2/M phase at 5 uM measured after 24 hrs by propidium iodide staining based flow cytometry (reference value: 39.4%); type: functional
HOS-TE85 [21] = test: Induction of apoptosis in human MNNG cells assessed as necrotic cells at 10 uM measured after 48 hrs by Alexa Fluor 488 Annexin V/propidium iodide staining based flow cytometry (reference value: 0.04%); type: functional
[22] = Toxicity in human MNNG cell xenografted Balb/c mouse assessed as effect on spleen at 15 to 45 mg/kg, iv administered every 2 days for 3 weeks and measured post last dose by H and E staining based microscopy; type: organism-based; conditions: in vivo, 504 h, dose 15-45 mg/kg, time 21 day
HOS-TE85 [23] = test: Cell cycle arrest in human MNNG cells assessed as accumulation of cells at G0/G1 phase at 5 uM measured after 24 hrs by propidium iodide staining based flow cytometry (reference value: 51.4%); type: functional
HOS-TE85 [24] = test: Cell cycle arrest in human MNNG cells assessed as accumulation of cells at G0/G1 phase at 10 uM measured after 24 hrs by propidium iodide staining based flow cytometry (reference value: 51.4%); type: functional
HOS-TE85 [25] = test: Cell cycle arrest in human MNNG cells assessed as accumulation of cells at G0/G1 phase at 1 uM measured after 24 hrs by propidium iodide staining based flow cytometry (reference value: 51.4%); type: functional

With Cc1cc2c(cc1C)-c1oc(CN3CCOCC3)c(C)c1C(=O)C2=O the Activity [1] was “Non-toxic”, the Activity (HOS-TE85 [2]) was 0.55% and the viability at 2.5 µM (HOS-TE85 [3]) was 73.6%. For the same compound, the viability at 10 µM (HOS-TE85 [4]) was 58.8%, the Activity (HOS-TE85 [5]) was 3.34% and the Activity [6] was “Non-toxic”. The Activity [7] was “Toxic”, the Activity (HOS-TE85 [8]) was 26.1% and the inhibition in vivo at 15 mg/kg (HOS-TE85 [9]) was 48.2%. The IC50 at 72 h [10] was 19 µM, the Activity (HOS-TE85 [11]) was “Dose-dependent-effect” and the Activity (HOS-TE85 [12]) was 37.8%. For the same compound, the Activity (HOS-TE85 [13]) was 37.8%, the Activity (HOS-TE85 [14]) was 41.1% and the Activity (HOS-TE85 [15]) was 53%. For the same compound, the inhibition of growth at 10 µM (HOS-TE85 [16]) was 99.5%, the Activity (HOS-TE85 [17]) was 10.2% and the selectivity ratio [18] was 13.3. For the same compound, the Activity (HOS-TE85 [19]) was 23.1%, the Activity (HOS-TE85 [20]) was 6.3% and the Activity (HOS-TE85 [21]) was 0.42%. The Activity [22] was “Non-toxic”, the Activity (HOS-TE85 [23]) was 55.9% and the Activity (HOS-TE85 [24]) was 63.7%. For the same compound, the Activity (HOS-TE85 [25]) was 49.7%.
